Measurements published in paper PMC12579162, “Synthesized Depside Molecules Suppress the Progression of Colorectal Cancer by Binding VDAC1/PHB/MMP9 Being at the Crossroads of Stemness, Motility, Apoptosis, and Metabolism” (MedComm, 2025).

Tests used:
Type in all cases: cell-based
CSC221 cells = assay: MTT cell viability, CSC221; conditions: Homo sapiens; 48 h, MTT assay
Method: (§1) Cells (3 × 10^3 cells/well) were seeded on a 96‐well plate, grown overnight, and then treated with compounds at indicated concentrations for 48 h. After incubation with MTT for 4 h at 37°C, cells were lysed with 150 µL of DMSO (Sigma–Aldrich, St. Louis, USA). Absorbance was measured at 570 nm on a microplate reader with the Gen5 software (v.2.03.1; BioTek, Winooski, VT, USA).

CaCo2 cells = assay: MTT cell viability, CaCo2; conditions: Homo sapiens, Caco-2; 48 h, MTT assay
Method: as §1

DLD1 cells = assay: MTT cell viability, DLD1; conditions: Homo sapiens, DLD-1; 48 h, MTT assay
Method: as §1

HCT116 cells = assay: MTT cell viability, HCT116; conditions: Homo sapiens, HCT-116; 48 h, MTT assay
Method: as §1

HT29 cells = assay: MTT cell viability, HT29; conditions: Homo sapiens, HT-29; 48 h, MTT assay
Method: as §1

CT26 cells = assay: MTT cell viability, CT26; conditions: Mus musculus, 48 h, MTT assay
Method: as §1

SW620 cells = assay: MTT cell viability, SW620; conditions: Homo sapiens, SW-620; 48 h, MTT assay
Method: as §1

BEAS-2B cells = assay: MTT cell viability, BEAS-2B; conditions: Homo sapiens, 48 h, MTT assay
Method: as §1

HaCaT cells = assay: MTT cell viability, HaCaT; conditions: Homo sapiens, 48 h, MTT assay
Method: as §1

HEK293T cells = assay: MTT cell viability, HEK293T; conditions: Homo sapiens, HEK-293T; 48 h, MTT assay
Method: as §1

MCF10A cells = assay: MTT cell viability, MCF10A; conditions: Homo sapiens, MCF-10A; 48 h, MTT assay
Method: as §1

spheroid formation = assay: Spheroid formation, comparison with known MMP inhibitor (Figure S10); conditions: 10 µM, 10–14 days
Method: Monolayer cells were separated into single‐cell suspensions at around 70% confluence using a solution of trypsin. After that, the cells were added to N2‐supplemented DMEM/F12 that contained human basal fibroblast growth factor and human recombinant epidermal growth factor. Cells seeded at a density of 5 × 10^3 cells/well in ultra‐low attachment 24‐well plates (Corning Inc., Corning, NY, USA). After 10–14 days of culture, spheres were quantitated by inverted phase contrast microscopy. The relative sphere formation ability was calculated through the IMT iSolution software (IMT iSolution Inc., Northampton, NJ, USA) measuring the pixel intensity of the sphere area randomly in each plate.
Supplementary Figure S10. Comparison of the effects of novel VDAC1/PHB/MMP9 binding compounds and known MMP inhibitor on spheroid formation. Cells were exposed to the compound at 5 μM concentration of SB4 or SB5 and 10 μM of MMP inhibitor (GM 6001, ilomastat) for 10-14 days. The histogram represents spheroid formation, calculated as rate relative to vehicle-treated control, and represented as bar graphs. *p < 0.05; **p < 0.01; ***p < 0.001; NS, no significant difference between compared groups.

| IC50 (CaCo2 cells) [µM] | IC50 (DLD1 cells) [µM] | IC50 (HCT116 cells) [µM] | IC50 (HT29 cells) [µM] | IC50 (CT26 cells) [µM] | IC50 (SW620 cells) [µM] | Compound | IC50 (CSC221 cells) [µM] | IC50 (BEAS-2B cells) [µM] | IC50 (HaCaT cells) [µM] | IC50 (HEK293T cells) [µM] | IC50 (MCF10A cells) [µM] | spheroid formation (spheroid formation) |
| --- | --- | --- | --- | --- | --- | --- | --- | --- | --- | --- | --- | --- |
| 90.5 | 64.1 | 49.1 | 62.8 | 46.2 | 46.2 | COc1cc(C)c(C(=O)Oc2cc(C)c(C(=O)O)c(O)c2C)c(OC)c1C [DA, diffractaic acid, reference compound] | 133 | 54.3 | 84.2 | 121 | 146 | – |
| – | – | – | – | – | – | CNC(=O)[C@H](Cc1c[nH]c2ccccc12)NC(=O)[C@@H](CC(=O)NO)CC(C)C [GM 6001, ilomastat] | – | – | – | – | – | no effect on inhibition of spheroid formation |
